Source: patent US12559529B2, “NPY2 receptor agonists” (Boehringer Ingelheim International GmbH, priority 2019, dated 2026)

Tests used:
[1] = molecular target: T1, Human Neuropeptide Y2 Receptor (Homo sapiens, UniProt P49146); experiment: Radioligand binding competition assay (RLB); conditions: Table 3; human 125I-PYY (1-36) 0.02 nM, Y2 receptor membranes; read-out: Ki
T1 construct: purchased CHEMICON HTS066M
T1 sequence (P49146 1-381): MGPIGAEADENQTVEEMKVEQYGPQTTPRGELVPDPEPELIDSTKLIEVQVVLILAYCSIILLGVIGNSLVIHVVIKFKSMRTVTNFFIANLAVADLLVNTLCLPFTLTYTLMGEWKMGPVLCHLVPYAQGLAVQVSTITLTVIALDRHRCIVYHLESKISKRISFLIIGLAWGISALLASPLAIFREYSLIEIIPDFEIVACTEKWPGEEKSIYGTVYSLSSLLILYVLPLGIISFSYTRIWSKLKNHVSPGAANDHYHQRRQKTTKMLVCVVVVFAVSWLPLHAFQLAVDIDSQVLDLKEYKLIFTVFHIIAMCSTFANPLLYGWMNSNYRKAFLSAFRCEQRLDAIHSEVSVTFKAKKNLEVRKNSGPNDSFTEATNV
In short: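 Membranes from cells expressing human Y2 receptor (0.5 μg protein/well) were incubated with radioligand and serially diluted peptides in 50 mM HEPES, 5 mM MgCl2, 1 mM CaCl2, 0.2% ovalbumin, pH 7.4, for 2 h at room temperature with shaking. Bound radioactivity was collected by filtration and counted; IC50 from sigmoidal nonlinear regression.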

normal NMRI mice = experiment: Effect on acute food intake in normal NMRI mice; type: in vivo; conditions: male NMRI mice, 10 nmol/kg subcutaneously once
Description: Male NMRI mice were obtained from Charles River (Charles River, Research Models & Services Germany GmbH) or from Jan Vier (Jan Vier Labs, France) at 5 weeks of age. […] Room temperature was controlled to 21° C.±1° C., with 60%+20% humidity.
Animals were transferred 5-7 days before the start of the study to a real-time food intake monitoring system, HM-2 system (MBRose, Denmark), to allow acclimatization to experimental conditions. As the animals were uniquely identified with microchips, each individual animal was identified by its microchip upon entry and exit from the food channel. Randomization of the mice for each study group (n=7-8) was based on body weight measured the day before the start of the study. A vehicle-treated (50 mM phosphate buffer pH7 with 5% Mannitol) group was included in each experiment. Six hours before the start of the night phase animals were fasted. One hour before the dark phase animals were dosed once subcutaneously (10 nmol/kg) with test peptide. […] The food intake of the treated groups was normalized (in %) to the average food intake of the group receiving vehicle (Table 7). Statistical significance was evaluated using One-way analysis of variance with Turkey's multiple comparison test. P<0.05 was considered statistically significant.

Ki [1] | SMILES | Acute Food Intake 24 h [% vehicle] (normal NMRI mice)
1.22 nM | CC[C@H](C)[C@H](NC(=O)[C@H](CCC(=O)O)NC(=O)[C@H](CCC(=O)O)NC(=O)[C@@H]1CCCN1C(=O)[C@H](CO)NC(=O)[C@H](C)NC(=O)[C@H](CC(=O)O)NC(=O)[C@H](CCC(=O)O)NC(=O)[C@H](CCC(=O)O)NC(=O)[C@@H]1CCCN1C(=O)[C@H](CCCCNC(=O)COCCOCCNC(=O)COCCOCCNC(=O)CC[C@H](NC(=O)CCCCCCCCCCCCCCCCC(=O)O)C(=O)O)NC(=O)[C@H](CCC(=O)O)NC(=O)[C@@H]1CCCN1C(=O)[C@H](C)NC(=O)CC(C)C)C(=O)N[C@@H](CCC(N)=O)C(=O)N[C@@H](CCCNC(=N)N)C(=O)N[C@@H](Cc1ccc(O)cc1)C(=O)N[C@@H](Cc1ccc(O)cc1)C(=O)N[C@H](C(=O)N[C@@H](CCC(=O)O)C(=O)N[C@@H](CC(C)C)C(=O)N[C@@H](CCCNC(=N)N)C(=O)N[C@@H](Cc1c[nH]cn1)C(=O)N[C@@H](Cc1ccc(O)cc1)C(=O)N[C@@H](Cc1ccc(O)cc1)C(=O)N[C@@H](CC(N)=O)C(=O)N[C@@H](Cc1c[nH]c2ccccc12)C(=O)N[C@@H](CC(C)C)C(=O)N[C@H](C(=O)N[C@@H](CCCNC(=N)N)C(=O)N[C@@H](CCC(N)=O)C(=O)N[C@@H](CCCNC(=N)N)C(=O)N[C@@H](Cc1ccc(O)cc1)C(N)=O)[C@@H](C)O)C(C)C [Compound 9, N{alpha-4}-(3-methylbutanoyl)-N{epsilon-7}-[2-(2-{2-[2-(2-{2-[(4S)-4-carboxy-4-(17-carboxyheptadecanamido)butanamido]ethoxy}ethoxy)acetamido]ethoxy}ethoxy)acetamido]-[4A,7K,9E,17I,18Q,22V,23E,28Y,30W,31L]hPYY (4-36)] | 44 % vehicle
3.09 nM | CC(C)CC(=O)N[C@@H](C)C(=O)N1CCC[C@H]1C(=O)N[C@@H](CCC(=O)O)C(=O)N[C@@H](CCCCNC(=O)COCCOCCNC(=O)COCCOCCNC(=O)CC[C@H](NC(=O)CCCCCCCCCCCCCCCCC(=O)O)C(=O)O)C(=O)N1CCC[C@H]1C(=O)N[C@@H](CCC(=O)O)C(=O)N[C@@H](CCC(=O)O)C(=O)N[C@@H](CC(=O)O)C(=O)N[C@@H](C)C(=O)N[C@@H](CO)C(=O)N1CCC[C@H]1C(=O)N[C@@H](CCC(=O)O)C(=O)N[C@@H](CCC(=O)O)C(=O)N[C@H](C(=O)N[C@@H](CCC(N)=O)C(=O)N[C@@H](CCCNC(=N)N)C(=O)N[C@@H](Cc1ccc(O)cc1)C(=O)N[C@@H](Cc1ccc(O)cc1)C(=O)N[C@H](C(=O)N[C@H](C(=O)N[C@@H](CC(C)C)C(=O)N[C@@H](CCCNC(=N)N)C(=O)N[C@@H](Cc1c[nH]cn1)C(=O)N[C@@H](Cc1ccc(O)cc1)C(=O)N[C@@H](Cc1ccc(O)cc1)C(=O)N[C@@H](CC(N)=O)C(=O)N[C@@H](Cc1c[nH]c2ccccc12)C(=O)N[C@@H](CC(C)C)C(=O)N[C@H](C(=O)N[C@@H](CCCNC(=N)N)C(=O)N[C@@H](CCC(N)=O)C(=O)N[C@@H](CCCNC(=N)N)C(=O)N[C@@H](Cc1ccc(O)cc1)C(N)=O)[C@@H](C)O)[C@@H](C)O)C(C)C)[C@@H](C)O [Compound 16, N{alpha-4}-(3-methylbutanoyl)-N{epsilon-7}-[2-(2-{2-[2-(2-{2-[(4S)-4-carboxy-4-(17-carboxyheptadecanamido)butanamido]ethoxy}ethoxy)acetamido]ethoxy}ethoxy)acetamido]-[4A,7K,9E,17T,18Q,22V,23T,28Y,30W,31L]hPYY (4-36)] | 67 % vehicle
1.52 nM | CC(C)CC(=O)N[C@@H](C)C(=O)N1CCC[C@H]1C(=O)N[C@@H](CCC(=O)O)C(=O)N[C@@H](CCCCNC(=O)COCCOCCNC(=O)COCCOCCNC(=O)CC[C@H](NC(=O)CCCCCCCCCCCCCCCCC(=O)O)C(=O)O)C(=O)N1CCC[C@H]1C(=O)N[C@@H](CCC(=O)O)C(=O)N[C@@H](CCC(=O)O)C(=O)N[C@@H](CC(=O)O)C(=O)N[C@@H](C)C(=O)N[C@@H](CO)C(=O)N1CCC[C@H]1C(=O)N[C@@H](CCC(=O)O)C(=O)N[C@@H](CCC(=O)O)C(=O)N[C@@H](CC(C)C)C(=O)N[C@@H](CCC(N)=O)C(=O)N[C@@H](CCCCN)C(=O)N[C@@H](Cc1ccc(O)cc1)C(=O)N[C@@H](Cc1ccc(O)cc1)C(=O)N[C@H](C(=O)N[C@@H](CO)C(=O)N[C@@H](CC(C)C)C(=O)N[C@@H](CCCNC(=N)N)C(=O)N[C@@H](Cc1c[nH]cn1)C(=O)N[C@@H](Cc1ccc(O)cc1)C(=O)N[C@@H](Cc1ccc(O)cc1)C(=O)N[C@@H](CC(N)=O)C(=O)N[C@@H](Cc1c[nH]c2ccccc12)C(=O)N[C@@H](CC(C)C)C(=O)N[C@H](C(=O)N[C@@H](CCCNC(=N)N)C(=O)N[C@@H](CCC(N)=O)C(=O)N[C@@H](CCCNC(=N)N)C(=O)N[C@@H](Cc1ccc(O)cc1)C(N)=O)[C@@H](C)O)C(C)C [Compound 21, N{alpha-4}-(3-methylbutanoyl)-N{epsilon-7}-[2-(2-{2-[2-(2-{2-[(4S)-4-carboxy-4-(17-carboxyheptadecanamido)butanamido]ethoxy}ethoxy)acetamido]ethoxy}ethoxy)acetamido]-[4A,7K,9E,18Q,19K,22V,28Y,30W,31L]hPYY (4-36)] | 89 % vehicle
0.45 nM | CC(C)CC(=O)N[C@@H](C)C(=O)N1CCC[C@H]1C(=O)N[C@@H](CCC(=O)O)C(=O)N[C@@H](CCCCNC(=O)COCCOCCNC(=O)COCCOCCNC(=O)CC[C@H](NC(=O)CCCCCCCCCCCCCCCCC(=O)O)C(=O)O)C(=O)N1CCC[C@H]1C(=O)N[C@@H](CCC(=O)O)C(=O)N[C@@H](CCC(=O)O)C(=O)N1CCC[C@H]1C(=O)N[C@@H](C)C(=O)N[C@@H](CO)C(=O)N1CCC[C@H]1C(=O)N[C@@H](CCC(=O)O)C(=O)N[C@@H](CCC(=O)O)C(=O)N[C@@H](CC(C)C)C(=O)N[C@@H](CCC(N)=O)C(=O)N[C@@H](CCCNC(=N)N)C(=O)N[C@@H](Cc1ccc(O)cc1)C(=O)N[C@@H](Cc1ccc(O)cc1)C(=O)N[C@H](C(=O)N[C@@H](CCC(=O)O)C(=O)N[C@@H](CC(C)C)C(=O)N[C@@H](CCCNC(=N)N)C(=O)N[C@@H](Cc1c[nH]cn1)C(=O)N[C@@H](Cc1ccc(O)cc1)C(=O)N[C@@H](Cc1ccc(O)cc1)C(=O)N[C@@H](CC(N)=O)C(=O)N[C@@H](Cc1c[nH]c2ccccc12)C(=O)N[C@@H](CC(C)C)C(=O)N[C@H](C(=O)N[C@@H](CCCNC(=N)N)C(=O)N[C@@H](CCC(N)=O)C(=O)N[C@@H](CCCNC(=N)N)C(=O)N[C@@H](Cc1ccc(O)cc1)C(N)=O)[C@@H](C)O)C(C)C [Compound 33, N{alpha-4}-(3-methylbutanoyl)-N{epsilon-7}-[2-(2-{2-[2-(2-{2-[(4S)-4-carboxy-4-(17-carboxyheptadecanamido)butanamido]ethoxy}ethoxy)acetamido]ethoxy}ethoxy)acetamido]-[4A,7K,9E,11P,18Q,22V,23E,28Y,30W,31L]hPYY (4-36)] | 54 % vehicle
0.89 nM | CC(C)CC(=O)N[C@@H](C)C(=O)N1CCC[C@H]1C(=O)N[C@@H](CCC(=O)O)C(=O)N[C@@H](CCCCNC(=O)COCCOCCNC(=O)COCCOCCNC(=O)CC[C@H](NC(=O)CCCCCCCCCCCCCCCCC(=O)O)C(=O)O)C(=O)N1CCC[C@H]1C(=O)N[C@@H](CCC(=O)O)C(=O)N[C@@H](CCC(=O)O)C(=O)N[C@@H](CC(=O)O)C(=O)N[C@@H](C)C(=O)N[C@@H](CO)C(=O)N1CCC[C@H]1C(=O)N[C@@H](CCC(=O)O)C(=O)N[C@@H](CCC(=O)O)C(=O)N[C@@H](CC(C)C)C(=O)N[C@@H](CCC(N)=O)C(=O)N[C@@H](CCC(N)=O)C(=O)N[C@@H](Cc1ccc(O)cc1)C(=O)N[C@@H](Cc1ccc(O)cc1)C(=O)N[C@H](C(=O)N[C@@H](CCC(=O)O)C(=O)N[C@@H](CC(C)C)C(=O)N[C@@H](CCCNC(=N)N)C(=O)N[C@@H](Cc1c[nH]cn1)C(=O)N[C@@H](Cc1ccc(O)cc1)C(=O)N[C@@H](Cc1ccc(O)cc1)C(=O)N[C@@H](CC(N)=O)C(=O)N[C@@H](Cc1c[nH]c2ccccc12)C(=O)N[C@@H](CC(C)C)C(=O)N[C@H](C(=O)N[C@@H](CCCNC(=N)N)C(=O)N[C@@H](CCC(N)=O)C(=O)N[C@@H](CCCNC(=N)N)C(=O)N[C@@H](Cc1ccc(O)cc1)C(N)=O)[C@@H](C)O)C(C)C [Compound 49, N{alpha-4}-(3-methylbutanoyl)-N{epsilon-7}-[2-(2-{2-[2-(2-{2-[(4S)-4-carboxy-4-(17-carboxyheptadecanamido)butanamido]ethoxy}ethoxy)acetamido]ethoxy}ethoxy)acetamido]-[4A,7K,9E,18Q,19Q,22V,23E,28Y,30W,31L]hPYY (4-36)] | 60 % vehicle
